According to paper PMC6925632 (Cell chemical biology, 2019):

Assays:
[1] = system: GPER over ERα; conditions: ref Dennis et al., 2011; cited from earlier work
[2] = system: FOXO3a-GFP; test: FOXO3a translocation in MCF-7 cells; conditions: E2 10 nM, G-1 100 nM, AB-1 1 μM, EGF 50 ng/mL
[3] = target: T1, ERα (Homo sapiens, UniProt P03372); conditions: MCF-7 cells; 24 h; Western blot
T1 sequence (P03372 1-595): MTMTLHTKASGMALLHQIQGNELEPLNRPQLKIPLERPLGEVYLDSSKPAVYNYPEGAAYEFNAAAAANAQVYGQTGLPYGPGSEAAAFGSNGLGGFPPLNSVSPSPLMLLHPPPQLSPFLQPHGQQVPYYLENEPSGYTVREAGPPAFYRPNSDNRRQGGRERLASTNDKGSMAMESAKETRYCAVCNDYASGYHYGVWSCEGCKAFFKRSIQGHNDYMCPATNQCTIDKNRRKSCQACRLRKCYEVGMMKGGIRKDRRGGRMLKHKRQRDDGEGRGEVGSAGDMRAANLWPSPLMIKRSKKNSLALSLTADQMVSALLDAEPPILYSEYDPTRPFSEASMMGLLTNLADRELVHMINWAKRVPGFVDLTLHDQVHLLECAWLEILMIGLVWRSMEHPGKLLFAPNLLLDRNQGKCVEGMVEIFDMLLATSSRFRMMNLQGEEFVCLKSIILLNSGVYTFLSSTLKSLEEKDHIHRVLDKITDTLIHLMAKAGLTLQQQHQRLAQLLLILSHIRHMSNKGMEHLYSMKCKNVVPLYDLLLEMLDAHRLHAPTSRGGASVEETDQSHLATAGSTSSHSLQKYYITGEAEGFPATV

[4] = system: uterus of ovariectomized mice; test: Mouse uterine estrogenicity: uterine wet weight; assay type: in vivo; conditions: dose of 10 ng; subcutaneous; 18 h
[5] = system: ERβ-GFP
[6] = system: ERβ-GFP; conditions: COS7 cells; 1 nM E2 or 1 μM AB-1
[7] = system: ERβ-GFP; conditions: COS7 cells; 1 nM E2 or 1 μM AB-1; 15 min
[8] = system: ERα over ERβ; conditions: ref Stauffer et al., 2000; cited from earlier work

CC(=O)c1ccc2c(c1)[C@@H]1C=CC[C@@H]1[C@H](c1cc3c(cc1Br)OCO3)N2 [G-1]
Selectivity for GPER over ERα [1]: > 10^5 fold | FOXO3a translocation from nucleus to cytoplasm [2]: stimulated cytosolic translocation

EGF: growth factor that stimulates the PI3K pathway (NSDSECPLSHDGYCLHDGVCMYIEALDKYACNCVVGYIGERCQYRDLKWWELR; UniProt P01133 971-1023, looked up)
FOXO3a translocation from nucleus to cytoplasm [2]: translocated from the nucleus to the cytoplasm

C[C@]12CC[C@@H]3c4ccc(O)cc4C[C@@H](CCCCCCCCC[S+]([O-])CCCC(F)(F)C(F)(F)F)[C@H]3[C@@H]1CC[C@@H]2O (stereo partly shown) [ICI182,780]
Effect on ERα levels [3]: potently decreased

C[C@]12CC[C@@H]3c4ccc(O)cc4CC[C@H]3[C@@H]1CC[C@@H]2O [E2, 17β-estradiol]
Imbibition response [4]: strong imbibition response | Block of E2-Alexa633 binding to ERβ-GFP (confocal) [5]: blocked binding of E2-Alexa633 | Induction of calcium mobilization, ERβ [6]: induced rapid calcium mobilization | PI3K activation (nuclear translocation of PH-mRFP1), ERβ [7]: induced strong nuclear localization of the PH-mRFP1 reporter | FOXO3a translocation from nucleus to cytoplasm [2]: stimulated cytosolic translocation

CCCc1c(-c2ccc(O)cc2)nn(-c2ccc(O)cc2)c1-c1ccc(O)cc1 [PPT]
Selectivity for ERα over ERβ [8]: about 400 fold
